Measured values from patent US20260083759A1, “Combinations Comprising Psychedelics for the Treatment of Schizophrenia and Other Neuropsychiatric and Neurologic Disorders” (HADASIT MEDICAL RESEARCH SERVICES AND DEVELOPMENT LTD, priority 2022, published 2026).

Experiments:
male ICR mice = assay: Head twitch response (HTR) induced by psilocybin in mice; format: in vivo
Text: The head twitch response (HTR) induced by serotonergic psychedelic agents such as psilocybin (PSIL) in rodents, is a characteristic behavioral effect mediated by cortical 5-HT2A receptors that is highly correlated with the psychedelic trip induced by these agents in humans.
In order to determine whether the negative effects such as HTR could be blocked in schizophrenic patients administered psilocybin (PSIL) (which ordinarily would produce “trip-induced effects”) upon further receiving clozapine (CLZ), the effect of concurrent CLZ treatment in blocking the HTR-inducing effect of PSIL in mice was examined.
Toward this end, male ICR mice (aged 8 weeks) were implanted with mini car-magnets and were administered the following treatments intraperitoneally (i.p.): • 1. CLZ at a dosage of 1 or 2 mg/kg weight; • 2. PSIL at a dosage of 4.4 mg/kg weight; • 3. CLZ at a dosage of 1 mg/kg weight and PSIL at a dosage of 4.4 mg/kg weight; • 4. CLZ at a dosage of 2 mg/kg weight and PSIL at a dosage of 4.4 mg/kg weight; and • 5. Vehicle (Saline) controls.
CLZ was administered 30 minutes before PSIL. All injection volumes were identical. HTR was assessed in up to 6 mice simultaneously over a 20-minute period using a purpose-built magnetometer and custom software. Experiments were approved by the Authority for Biological and Biomedical Models, Hebrew University
To further extend these studies, it was of interest to determine the HTR effects induced by Psilocybin when mice were pre-administered D-Serine 3000 mg/kg, as opposed to CLZ (FIG. 2A), or D-Serine 1500 mg/kg, as opposed to CLZ (FIG. 2B).

ICR mice = assay: MK-801 induced hyperactivity in the open field; format: in vivo; settings: MK-801 0.1 mg/kg i.p. immediately before open field for one hour (FIG. 3A)
Procedure: Hyperactivity induced in rodents by the NMDA receptor antagonist, MK-801, is a key rodent pharmacological model of acute psychotic features in humans.
Drugs which induce psychosis in humans enhance MK-801 induced hyperactivity in rodents while antipsychotic drugs reduce or block the effect.
In order to determine the interactive effects of PSIL and CLZ, a murine model was used where MK-801 induced hyperactivity, was assessed, which serves as a surrogate system for psychotic symptoms in schizophrenia patients.
Toward this end PSIL and CLZ alone and in combination were evaluated for their effects on MK-801 induced hyperactivity in […].
ICR mice were administered MK-801 intra-peritoneally, at a dose of 0.1 mg/kg immediately before they were placed in an open field for one hour. 30 minutes prior to administration of MK-801, mice were pretreated as follows: • 1. PSIL at a dosage of 4.4 mg/kg; • 2. CLZ at a dosage of 1.0 mg/kg; • 3. PSIL at a dosage of 4.4 mg/kg and CLZ at a dosage of 1.0 mg/kg; • 4. D-Serine (DSR) at a dosage of 3000 mg/kg; • 5. D-cycloserine (DCS) at a dosage of 320 mg/kg; • 6. […]
Activity in the open field was monitored by an overhead camera and was recorded by a Noldus Ethovision apparatus. […] Distance moved/travelled in the open field, center duration and center frequency were evaluated in the open field arena.

SV2A = assay: Western Blot of synaptic protein SV2A in brain regions, 7 days post-administration; format: in vivo, mice; settings: hippocampus; single i.p. injection (D-Serine 3 g/kg or with psilocybin 4.4 mg/kg); 7 days post-administration (FIG. 5)
Procedure: (§1) Specifically, ICR mice were administered a single intra-peritoneal injection of psilocybin at a dosage of 4.4 mg/kg, D-Serine at a dosage of 3 g/kg, a combined psilocybin dosage of 4.4 mg/kg+D-Serine dosage of 3 g/kg and compared to control animals (administered a saline vehicle). 7 days post-administration, animals were harvested, and individual brain regions were dissected, homogenized and processed for Western Blot analysis, probing for GAP43, Synaptophysin and SV2A protein expression, using commercially available reagents (Abcam).
(§2) Animals injected with PSIL or D-SER or the combination of the two were specifically probed for changes in synaptic protein expression, for proteins that are pivotally involved in neuroplasticity of the brain, focusing on 4 key regions: the brain frontal cortex, hippocampus, amygdala and striatum.
(§3) In order to comparatively assess all the effects of individual DSER or PSIL and combined DSER and PSIL administration on each brain region, a nested analysis of variance in which the level each of the synaptic proteins was compared to controls was assessed across the four brain regions frontal cortex, hippocampus, amygdala and striatum (FIG. 6).

GAP43 = assay: Western Blot of synaptic protein GAP43 in brain regions, 7 days post-administration; format: in vivo, mice; settings: for GAP43 protein levels: single i.p. injection (psilocybin 4.4 mg/kg, D-Serine 3 g/kg or both), 7 days post-administration, vs saline controls (FIG. 4)
Procedure: as §1, §2, §3

Synaptophysin = assay: Western Blot of synaptic protein Synaptophysin in brain regions, 7 days post-administration; format: in vivo, mice
Procedure: as §1, §2, §3

[1] = across the four brain regions frontal cortex, hippocampus, amygdala and striatum, 7 days post-administration (FIG. 6)

`N[C@@H]1CONC1=O` [DCS, D-cycloserine] was tested, and the HTR (male ICR mice; DCS alone) was “did not affect HTR” and the “PSIL-mediated increased HTR over time” value (male ICR mice; plotted for up to 30 minutes, DCS at doses of over 320 mg/kg with PSIL (FIG. 2E)) was “rapid abrogation”.
With `C[C@]12N[C@H](Cc3ccccc31)c1ccccc12` [MK-801] the “distance travelled in the open field” value (ICR mice) was “marked movement”.
`N[C@H](CO)C(=O)O` [D-Serine] was tested, and the SV2A expression (SV2A) was “increased”, the “PSIL-mediated increased HTR” value (male ICR mice; D-Serine 3000 mg/kg (FIG. 2A) or 1500 mg/kg (FIG. 2B) pre-administered before Psilocybin) was “significantly reduced” and the HTR (male ICR mice; DSR alone) was “did not affect HTR”. The “PSIL-mediated HTR over time” value (male ICR mice; lower D-serine dose with PSIL (FIG. 2C)) was “consistent over time”, the “GAP43 levels, nested analysis of variance compared to controls” value (GAP43; [1]) was “increase” and the GAP43 protein levels (GAP43; amygdala) was “significantly increased”. For the same molecule, the GAP43 protein levels (GAP43; frontal cortex) was “significantly increased”, the “Synaptophysin expression, nested analysis of variance compared to controls” value (Synaptophysin; [1]) was “increasing levels” and the synaptophysin protein expression (Synaptophysin; frontal cortex, single i.p. injection D-Serine 3 g/kg, 7 days post-administration (FIG. 5)) was “increased”.
